Assay results: article PMC4505863 (ACS Chemical Neuroscience, 2014)

What was measured:
5-HT2A receptor [1] = target: T1, 5-HT2A receptor (Homo sapiens, UniProt P28223); assay: h5-HT2A affinity, antagonist radioligand [3H]ketanserin; assay type: binding
5-HT2A receptor [2] = target: T1, 5-HT2A receptor; assay: h5-HT2A affinity, agonist radioligand [125I]DOI; assay type: binding
human 5-HT2C receptor [3] = target: T2, human 5-HT2C receptor (Homo sapiens, UniProt P28335); assay: h5-HT2C affinity, antagonist radioligand [3H]mesulergine; assay type: binding
T2 sequence (P28335 33-458): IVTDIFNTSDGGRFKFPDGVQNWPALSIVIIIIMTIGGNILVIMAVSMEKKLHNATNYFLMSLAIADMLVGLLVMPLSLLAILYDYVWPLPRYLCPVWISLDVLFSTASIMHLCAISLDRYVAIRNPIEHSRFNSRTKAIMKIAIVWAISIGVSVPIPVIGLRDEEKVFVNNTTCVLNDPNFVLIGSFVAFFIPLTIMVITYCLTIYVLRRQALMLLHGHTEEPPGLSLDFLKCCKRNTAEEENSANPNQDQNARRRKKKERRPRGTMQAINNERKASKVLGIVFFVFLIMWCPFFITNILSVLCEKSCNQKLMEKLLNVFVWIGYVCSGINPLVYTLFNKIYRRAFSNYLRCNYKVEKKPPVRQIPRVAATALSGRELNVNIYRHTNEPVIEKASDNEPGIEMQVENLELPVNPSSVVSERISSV

human 5-HT2C receptor [4] = target: T2, human 5-HT2C receptor; assay: h5-HT2C affinity, agonist radioligand [125I]DOI; assay type: binding
5-HT2B = 5-HT2B (Homo sapiens, UniProt P41595); assay: PDSP screening affinity 5-HT2B; assay type: binding; settings: 5-HT2B affinity
5-HT1A = target: T3, 5-HT1A (Homo sapiens, UniProt P08908); assay: PDSP screening affinity 5-HT1A; assay type: binding; settings: 5-HT1A affinity
T3 sequence (P08908 1-422): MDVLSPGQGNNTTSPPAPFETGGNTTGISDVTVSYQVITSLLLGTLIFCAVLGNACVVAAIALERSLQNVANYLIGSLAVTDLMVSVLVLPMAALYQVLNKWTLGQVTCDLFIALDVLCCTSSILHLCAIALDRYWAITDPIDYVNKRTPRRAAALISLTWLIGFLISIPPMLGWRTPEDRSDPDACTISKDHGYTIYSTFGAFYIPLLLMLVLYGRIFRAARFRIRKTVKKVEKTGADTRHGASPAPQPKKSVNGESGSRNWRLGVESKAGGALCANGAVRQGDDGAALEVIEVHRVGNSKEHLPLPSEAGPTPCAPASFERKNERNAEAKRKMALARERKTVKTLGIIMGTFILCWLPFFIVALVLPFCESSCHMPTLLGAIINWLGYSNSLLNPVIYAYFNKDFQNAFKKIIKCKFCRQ

5-HT1B = 5-HT1B (Homo sapiens, UniProt P28222); assay: PDSP screening affinity 5-HT1B; assay type: binding
5-HT1D = 5-HT1D (Homo sapiens, UniProt P28221); assay: PDSP screening affinity 5-HT1D; assay type: binding
5-ht1e = 5-ht1e (Homo sapiens, UniProt P28566); assay: PDSP screening affinity 5-ht1e; assay type: binding
5-HT3 = target: T4, 5-HT3 (Homo sapiens, UniProt P46098); assay: PDSP screening affinity 5-HT3; assay type: binding
T4 sequence (P46098 24-478): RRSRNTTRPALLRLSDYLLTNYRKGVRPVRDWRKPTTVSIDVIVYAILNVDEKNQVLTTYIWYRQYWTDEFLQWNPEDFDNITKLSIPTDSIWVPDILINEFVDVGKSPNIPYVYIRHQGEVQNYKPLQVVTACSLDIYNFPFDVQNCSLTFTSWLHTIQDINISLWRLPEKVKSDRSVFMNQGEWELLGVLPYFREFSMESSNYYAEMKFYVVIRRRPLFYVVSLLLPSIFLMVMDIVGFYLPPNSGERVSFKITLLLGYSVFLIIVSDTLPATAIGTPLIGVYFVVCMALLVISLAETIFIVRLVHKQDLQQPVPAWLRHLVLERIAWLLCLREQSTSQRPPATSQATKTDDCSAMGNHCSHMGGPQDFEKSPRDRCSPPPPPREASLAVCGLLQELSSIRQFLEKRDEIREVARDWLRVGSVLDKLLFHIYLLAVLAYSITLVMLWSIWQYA

5-ht5a = 5-ht5a (Homo sapiens, UniProt P47898); assay: PDSP screening affinity 5-ht5a; assay type: binding; settings: 5-ht5a affinity
5-HT6 = 5-HT6 (Homo sapiens, UniProt P50406); assay: PDSP screening affinity 5-HT6; assay type: binding; settings: 5-HT6 affinity
5-HT7 = 5-HT7 (Homo sapiens, UniProt P34969); assay: PDSP screening affinity 5-HT7; assay type: binding; settings: 5-HT7 affinity
r5-HT2A = r5-HT2A (Rattus norvegicus, UniProt P14842); assay: Ca2+ mobilization assay; assay type: cell-based; settings: for EC50: r5-HT2A EC50, Ca2+ mobilization; for Emax: read-out: r5-HT2A Emax, percentage of the maximum response to 5-HT
h5-HT2A = h5-HT2A (Homo sapiens, UniProt P28223); assay: Ca2+ mobilization assay; assay type: cell-based; settings: for Emax: HEK293, read-out: h5-HT2A Emax, percentage of the maximum response to 5-HT
h5-HT2B = h5-HT2B (Homo sapiens, UniProt P41595); assay: Ca2+ mobilization assay; assay type: cell-based; settings: for Emax: HEK293, read-out: h5-HT2B Emax; for EC50: h5-HT2B EC50, Ca2+ mobilization
r5-HT2C = target: T5, r5-HT2C (Rattus norvegicus, UniProt P08909); assay: Ca2+ mobilization assay; assay type: cell-based; settings: for EC50: r5-HT2C EC50, Ca2+ mobilization; for Emax: read-out: r5-HT2C Emax
T5 sequence (P08909 33-460): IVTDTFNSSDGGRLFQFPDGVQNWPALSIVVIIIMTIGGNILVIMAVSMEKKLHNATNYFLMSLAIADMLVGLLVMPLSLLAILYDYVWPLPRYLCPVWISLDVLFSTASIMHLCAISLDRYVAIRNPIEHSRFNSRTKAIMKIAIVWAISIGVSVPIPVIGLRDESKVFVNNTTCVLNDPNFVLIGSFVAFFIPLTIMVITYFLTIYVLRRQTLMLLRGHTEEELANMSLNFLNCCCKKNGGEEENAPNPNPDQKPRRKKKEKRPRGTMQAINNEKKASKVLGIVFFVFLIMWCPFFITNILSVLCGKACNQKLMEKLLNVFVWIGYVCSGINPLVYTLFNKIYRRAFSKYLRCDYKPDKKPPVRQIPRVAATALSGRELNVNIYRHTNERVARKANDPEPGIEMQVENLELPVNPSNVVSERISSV

h5-HT2C = target: T6, h5-HT2C (Homo sapiens, UniProt P28335); assay: Ca2+ mobilization assay; assay type: cell-based; settings: for Emax: HEK293, read-out: h5HT2C Emax
T6 sequence (P28335 33-458): T2 sequence (P28335 33-458)

Male C57BL/6J mice = assay: Mouse head twitch response; settings: for activity in the HTR assay (active / inactive): doses up to 30 mg/kg

h5-HT2B, sequence (P41595 whole entry): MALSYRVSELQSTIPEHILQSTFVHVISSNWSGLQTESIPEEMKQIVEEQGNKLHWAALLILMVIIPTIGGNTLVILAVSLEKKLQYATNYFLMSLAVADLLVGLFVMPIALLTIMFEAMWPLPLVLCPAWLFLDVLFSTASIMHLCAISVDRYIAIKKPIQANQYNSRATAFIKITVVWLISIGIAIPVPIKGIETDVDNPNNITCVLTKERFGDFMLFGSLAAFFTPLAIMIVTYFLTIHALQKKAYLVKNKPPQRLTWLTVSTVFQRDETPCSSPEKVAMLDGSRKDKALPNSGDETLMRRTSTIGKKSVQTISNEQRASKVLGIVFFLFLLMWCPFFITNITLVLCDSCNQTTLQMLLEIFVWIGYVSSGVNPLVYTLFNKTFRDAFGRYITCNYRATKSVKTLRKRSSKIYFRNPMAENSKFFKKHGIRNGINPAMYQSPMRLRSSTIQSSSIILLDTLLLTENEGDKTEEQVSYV
h5-HT2A, sequence (P28223 whole entry): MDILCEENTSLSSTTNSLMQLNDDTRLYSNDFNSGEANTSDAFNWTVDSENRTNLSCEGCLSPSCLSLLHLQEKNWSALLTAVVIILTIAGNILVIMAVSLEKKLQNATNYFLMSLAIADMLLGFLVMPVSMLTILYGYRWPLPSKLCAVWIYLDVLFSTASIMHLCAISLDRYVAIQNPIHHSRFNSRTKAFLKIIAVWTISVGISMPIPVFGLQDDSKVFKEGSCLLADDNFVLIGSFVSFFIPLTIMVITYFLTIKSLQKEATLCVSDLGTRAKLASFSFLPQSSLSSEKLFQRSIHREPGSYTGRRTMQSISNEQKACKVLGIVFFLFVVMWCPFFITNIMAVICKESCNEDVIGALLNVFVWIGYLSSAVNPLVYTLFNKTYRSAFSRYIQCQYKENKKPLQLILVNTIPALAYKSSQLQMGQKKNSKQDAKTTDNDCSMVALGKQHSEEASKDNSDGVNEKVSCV
T1 sequence (P28223 whole entry): as above
r5-HT2A, sequence (P14842 whole entry): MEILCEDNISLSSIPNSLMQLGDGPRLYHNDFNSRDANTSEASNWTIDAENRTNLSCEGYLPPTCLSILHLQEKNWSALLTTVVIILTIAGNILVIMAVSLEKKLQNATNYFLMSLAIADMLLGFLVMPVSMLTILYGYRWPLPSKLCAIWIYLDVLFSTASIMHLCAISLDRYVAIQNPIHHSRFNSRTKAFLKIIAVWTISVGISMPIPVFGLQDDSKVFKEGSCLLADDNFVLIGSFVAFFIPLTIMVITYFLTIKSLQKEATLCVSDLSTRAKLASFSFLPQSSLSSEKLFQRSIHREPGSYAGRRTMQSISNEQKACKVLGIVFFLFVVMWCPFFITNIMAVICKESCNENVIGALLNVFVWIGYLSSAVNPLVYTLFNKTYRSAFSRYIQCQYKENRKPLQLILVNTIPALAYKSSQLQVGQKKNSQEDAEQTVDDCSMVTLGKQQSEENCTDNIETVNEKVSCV
5-HT1B, sequence (P28222 whole entry): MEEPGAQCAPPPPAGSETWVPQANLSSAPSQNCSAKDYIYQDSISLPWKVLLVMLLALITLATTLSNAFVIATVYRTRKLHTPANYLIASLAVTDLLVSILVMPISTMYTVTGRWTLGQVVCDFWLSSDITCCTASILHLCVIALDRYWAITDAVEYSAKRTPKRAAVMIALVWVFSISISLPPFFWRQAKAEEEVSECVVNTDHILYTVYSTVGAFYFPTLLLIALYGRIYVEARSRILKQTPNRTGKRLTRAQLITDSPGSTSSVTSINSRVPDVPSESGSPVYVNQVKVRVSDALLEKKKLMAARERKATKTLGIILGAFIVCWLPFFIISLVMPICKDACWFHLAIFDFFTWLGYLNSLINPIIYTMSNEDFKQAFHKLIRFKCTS
5-HT2B, sequence (P41595 whole entry): as the sequence (P41595 whole entry) above
5-HT1D, sequence (P28221 whole entry): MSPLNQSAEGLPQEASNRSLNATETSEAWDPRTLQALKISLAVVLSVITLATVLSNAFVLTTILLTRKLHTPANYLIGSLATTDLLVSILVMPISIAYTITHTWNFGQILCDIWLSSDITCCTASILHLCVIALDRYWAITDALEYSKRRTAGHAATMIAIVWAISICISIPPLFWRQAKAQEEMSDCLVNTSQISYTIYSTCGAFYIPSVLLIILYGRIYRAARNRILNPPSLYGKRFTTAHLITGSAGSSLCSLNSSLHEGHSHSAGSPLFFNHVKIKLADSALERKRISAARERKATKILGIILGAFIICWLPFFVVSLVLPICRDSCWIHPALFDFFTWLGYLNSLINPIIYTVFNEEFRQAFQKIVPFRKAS
5-ht5a, sequence (P47898 whole entry): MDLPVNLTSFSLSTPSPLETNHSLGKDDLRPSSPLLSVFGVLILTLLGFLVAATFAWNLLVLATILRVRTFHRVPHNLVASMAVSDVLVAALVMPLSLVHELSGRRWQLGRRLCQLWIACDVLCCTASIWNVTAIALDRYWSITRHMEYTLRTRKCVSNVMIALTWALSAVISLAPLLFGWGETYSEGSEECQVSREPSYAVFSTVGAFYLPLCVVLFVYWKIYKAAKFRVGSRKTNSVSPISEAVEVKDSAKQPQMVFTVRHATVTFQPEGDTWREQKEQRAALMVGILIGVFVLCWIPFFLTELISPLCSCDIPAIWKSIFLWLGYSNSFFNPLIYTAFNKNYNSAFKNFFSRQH
5-HT6, sequence (P50406 whole entry): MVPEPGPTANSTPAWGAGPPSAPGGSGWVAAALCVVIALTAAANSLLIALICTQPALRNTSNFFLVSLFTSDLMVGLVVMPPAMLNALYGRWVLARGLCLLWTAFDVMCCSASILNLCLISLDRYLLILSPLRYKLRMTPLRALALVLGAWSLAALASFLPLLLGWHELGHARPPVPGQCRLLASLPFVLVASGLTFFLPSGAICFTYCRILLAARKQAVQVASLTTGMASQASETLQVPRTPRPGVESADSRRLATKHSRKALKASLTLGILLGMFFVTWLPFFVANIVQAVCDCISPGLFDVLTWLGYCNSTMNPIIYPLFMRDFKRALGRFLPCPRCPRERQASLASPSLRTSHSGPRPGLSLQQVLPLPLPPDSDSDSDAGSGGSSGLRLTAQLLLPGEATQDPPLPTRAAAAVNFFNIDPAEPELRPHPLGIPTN
5-ht1e, sequence (P28566 whole entry): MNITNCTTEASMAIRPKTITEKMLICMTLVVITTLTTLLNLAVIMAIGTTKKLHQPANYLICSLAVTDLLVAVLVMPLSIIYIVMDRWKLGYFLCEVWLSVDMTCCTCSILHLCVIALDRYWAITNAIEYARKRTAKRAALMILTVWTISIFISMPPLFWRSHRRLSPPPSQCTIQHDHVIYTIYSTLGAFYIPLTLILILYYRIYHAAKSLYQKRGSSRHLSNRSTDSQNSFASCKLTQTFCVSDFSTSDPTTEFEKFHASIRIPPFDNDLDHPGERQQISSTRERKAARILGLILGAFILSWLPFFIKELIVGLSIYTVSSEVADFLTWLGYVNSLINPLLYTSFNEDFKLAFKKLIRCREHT
5-HT7, sequence (P34969 whole entry): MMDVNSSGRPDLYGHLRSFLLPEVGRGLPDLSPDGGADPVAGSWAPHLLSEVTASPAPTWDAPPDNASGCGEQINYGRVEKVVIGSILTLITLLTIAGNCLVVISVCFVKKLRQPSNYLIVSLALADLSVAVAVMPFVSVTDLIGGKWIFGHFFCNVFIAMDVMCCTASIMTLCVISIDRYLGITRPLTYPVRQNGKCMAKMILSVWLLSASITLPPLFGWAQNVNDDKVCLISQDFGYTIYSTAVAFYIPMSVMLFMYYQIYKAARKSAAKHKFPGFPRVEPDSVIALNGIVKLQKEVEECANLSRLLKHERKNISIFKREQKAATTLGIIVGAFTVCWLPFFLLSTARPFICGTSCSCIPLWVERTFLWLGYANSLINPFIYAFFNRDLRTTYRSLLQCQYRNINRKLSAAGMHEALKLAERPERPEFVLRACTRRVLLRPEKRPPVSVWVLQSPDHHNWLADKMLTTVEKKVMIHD

SMILES	Ki (5-HT2A receptor [1]) [nM]	Ki (5-HT2A receptor [2]) [nM]	Ki (human 5-HT2C receptor [3]) [nM]	Ki (human 5-HT2C receptor [4]) [nM]	Ki (5-HT2B) [nM]	Ki (5-HT1A) [nM]	Ki (5-HT1B; 5-HT1B affinity) [nM]	Ki (5-HT1D) [nM]	Ki (5-ht1e) [nM]	Ki (5-HT3) [nM]	Ki (5-ht5a) [nM]	Ki (5-HT6) [nM]	Ki (5-HT7) [nM]	EC50 (r5-HT2A) [nM]	Emax (r5-HT2A) [%]	EC50 (h5-HT2A) [nM]	Emax (h5-HT2A) [%]	Emax (h5-HT2B) [%]	EC50 (h5-HT2B) [nM]	EC50 (r5-HT2C) [nM]	further results
COc1cccc(CNCCc2cc(OC)c(I)cc2OC)c1 [Compound 4a, N-(3-Methoxybenzyl)-2-(4-iodo-2,5-dimethoxyphenyl)ethan-1-amine]	1.55	0.269	4.17	0.126	4.6	925	3230	439	1710	> 10000	57	67	583	27	51.7 ± 0.9	28	71.6 ± 0.9	≤ 15	38	133	Emax (r5-HT2C): 91 ± 3%; Emax (h5-HT2C): 41 ± 6%; EC50 (h5-HT2C; h5HT2C EC50, Ca2+ mobilization): 33.8 nM; max counts (Male C57BL/6J mice; HTR counts, SC): 11.4; ED50 (Male C57BL/6J mice; Mus musculus, sc, read-out: ED50 mg/kg (95% CI), mouse head twitch): 4.34 mg/kg; activity in the HTR assay (active / inactive) (Male C57BL/6J mice; SC): active; magnitude of peak effect × vehicle (Male C57BL/6J mice; SC, mouse head twitch): 5.7 × vehicle; maximally effective dose (Male C57BL/6J mice; SC, mouse head twitch): 30 mg/kg
COc1cc(CCNCc2ccc(Br)cc2)c(OC)cc1I [Compound 4e, N-(4-Bromobenzyl)-2-(4-iodo-2,5-dimethoxyphenyl)ethan-1-amine]	52.5	3.24	45.7	3.31	68	649	5090	311	> 10000	2460	1850	350	641	150	67.3 ± 0.9	170	88 ± 1.4	90 ± 2	610	290	Ki (5-HT1B; 5-HT1B pKi ± SEM): 6030 nM; Emax (r5-HT2C): 105 ± 2%; Emax (h5-HT2C): 77 ± 5%; EC50 (h5-HT2C; h5HT2C EC50, Ca2+ mobilization): 200 nM; EC50 (h5-HT2C; h5HT2C pEC50 ± SEM, Ca2+ mobilization): 219 nM; activity in the HTR assay (active / inactive) (Male C57BL/6J mice; SC): None of the phenethylamines or tryptamines with 4-substituted N-benzyl groups, 4b, 4e, 5c, or 5f, was active
